Measurements from patent publication US5747500A, “Antiviral 2, 4-pyrimidinedione derivatives” (priority 1993, dated 1998).
≈ marks a conversion by molar mass, not a printed value.

Legend:
HIV = assay: inhibition of HIV-induced cytopathic effect in MT-4 cells (MTT method); assay type: cell-based; settings: for EC50: Human immunodeficiency virus 1, MT4, HIV-infected MT-4 cells, 1000 CCID50, 4 or 5 day incubation at 37° C., MTT method, read-out: ED50: Effective concentration for the inhibition of the proliferation of HIV by 50%; for S.I.: Selectivity index (CD50/ED50): ratio CD50/ED50, MT-4 cells
Experimental: The anti-HIV assays were based on the inhibition of the virus-induced cytopathic effect in MT-4 cells as described in J. Virol. Methods, 16, 171 (1987). Briefly, MT-4 cells were suspended in culture medium at 2.5×10^5 cells/ml and infected with 1000 CCID50 (50% cell culture infective dose) of HIV. Immediately, after virus infection, 100 μl of the cell suspension was brought into each well of a flat-bottomedmicrotiter tray containing various concentrations of the test compounds. After a 4 or 5 day incubation at 37° C., the number of viable cells was determined by the 3-(4,5-dimethylthiazol-2-yl)-2,5-diphenyltetrazoliumbromide (MTT) method, as disclosed in J. Virol. Methods, 20, 309 (1988).
ED50 : Effective concentration for the inhibition of the
proliferation of HIV by 50%

[1] = cytotoxicity: viability of mock-infected MT-4 host cells (MTT method); assay type: cell-based; settings: human, mt-4 cells, read-out: CD50: Cytotoxic concentration that causes death of cells by 50%
Experimental: The cytotoxicity of the compounds of the present invention was assessed in parallel with their antiviral activity. It was based on the viability of mock-infected host cells as determined by the MTT methods (se J. Virol. Methods, 20, 309 (1988)).
CD50 : Cytotoxic concentration that causes death of cells by 50%

| Compound | EC50 (HIV) [µg/mL] | S.I.: Selectivity index (CD50/ED50) (HIV) | CC50 [1] [µg/mL] |
| --- | --- | --- | --- |
| C/C=C/Cn1c(Oc2cc(C)cc(C)c2)c(CC)c(=O)[nH]c1=O [Example 10, 1-(trans-2-butenyl)-5-ethyl-6-(3,5-dimethylphenoxy)-2,4-pyrimidinedione] | < 0.01 | > 1,939 | 19.4 (≈ 61.7 µM) |
| CCc1c(Cc2cc(C)cc(C)c2)n(C/C=C/C(=O)OC)c(=O)[nH]c1=O [Example 37] | 1.64 (≈ 4.6 µM) | 7.6 | 12.5 (≈ 35 µM) |
| C=CCn1c(Cc2ccccc2)c(CC)c(=O)[nH]c1=O [Example 4, 1-allyl-5-ethyl-6-benzyl-2,4-pyrimidinedione] | < 0.32 | > 164 | 52.5 (≈ 194 µM) |
| CCc1c(C(=O)c2cc(C)cc(C)c2)n(CC=CC(=O)OC(C)C)c(=O)[nH]c1=O [Example 73, 1-(isopropoxycarbonylallyl)-5-ethyl-6-(3,5-dimethylbenzoyl)-2,4-pyrimidinedione] | < 0.01 | > 485 | 4.85 (≈ 12.2 µM) |
| CCc1c(Sc2ccccc2)n(C/C=C\COCc2ccccc2)c(=O)[nH]c1=O [Example 17] | 3.68 (≈ 9.01 µM) | 1.57 | 5.79 (≈ 14.2 µM) |
| CCc1c(Oc2cc(C)cc(C)c2)n(C/C=C/C(=O)OC)c(=O)[nH]c1=O [Example 63] | < 0.032 | > 224 | 7.17 (≈ 20 µM) |
| COC(=O)/C=C/Cn1c(Sc2cc(C)cc(C)c2)c(C(C)C)c(=O)[nH]c1=O [Example 30] | < 0.009 | > 1,966 | 17.7 (≈ 45.6 µM) |
| C#CCn1c(Sc2ccccc2)c(CC)c(=O)[nH]c1=O [Example 1, 1-propargyl-5-ethyl-6-phenylthio-2,4-pyrimidinedione] | < 0.32 | > 46 | 14.8 (≈ 51.9 µM) |
| Cc1cc(C)cc(Cc2c(C(C)C)c(=O)[nH]c(=O)n2C/C=C/c2ccccc2)c1 [Example 6, 1-(trans-cinnamyl)-5-isopropyl-6-(3,5-dimethylbenzyl)-2,4-pyrimidinedione] | < 0.009 | > 892 | 8.03 (≈ 20.7 µM) |
| CC#CCn1c(Oc2cc(C)cc(C)c2)c(C(C)C)c(=O)[nH]c1=O [Example 11, 1-(2-butynyl)-5-isopropyl-6-(3,5-dimethylphenoxy)-2,4-pyrimidinedione] | < 0.32 | > 124 | 39.9 (≈ 122 µM) |
| C/C=C/Cn1c(C(=O)c2cc(C)cc(C)c2)c(C(C)C)c(=O)[nH]c1=O [Example 51] | < 0.01 | > 2,473 | 22.3 (≈ 65.4 µM) |
| CCc1c(C(=O)c2cc(C)cc(C)c2)n(C/C=C/CN=[N+]=[N-])c(=O)[nH]c1=O [Example 79, 1-(4-azido-trans-2-butenyl)-5-ethyl-6-(3,5-dimethylbenzoyl)-2,4-pyrimidinedione] | < 0.009 | > 911 | 8.2 (≈ 22.3 µM) |
| C/C=C/Cn1c(C(=O)c2cc(C)cc(C)c2)c(CC)c(=O)[nH]c1=O [Example 44] | < 0.01 | > 3,439 | 34.4 (≈ 105 µM) |
| C#CCn1c(C(=O)c2cc(C)cc(C)c2)c(CC)c(=O)[nH]c1=O [Example 48, 1-propargyl-5-ethyl-6-(3,5-dimethylbenzoyl)-2,4-pyrimidinedione] | < 0.39 | > 93 | 36.4 (≈ 117 µM) |
| CCc1c(Sc2ccccc2)n(CC=C(C)C)c(=O)[nH]c1=O [Example 15, 1-(3-methyl-2-butenyl)-5-ethyl-6-phenylthio-2,4-pyrimidinedione] | 0.36 (≈ 1.14 µM) | 31 | 11.3 (≈ 35.6 µM) |
| CC#CCn1c(C(=O)c2cc(C)cc(C)c2)c(C(C)C)c(=O)[nH]c1=O [Example 55, 1-(2-butynyl)-5-isopropyl-6-(3,5-dimethylbenzoyl)-2,4-pyrimidinedione] | < 0.32 | > 130 | 41.7 (≈ 123 µM) |

| Compound | EC50 (HIV) [µg/mL] | S.I.: Selectivity index (CD50/ED50) (HIV) | CC50 [1] [µg/mL] |
| --- | --- | --- | --- |
| COC(=O)/C=C/Cn1c(Oc2cc(C)cc(C)c2)c(C(C)C)c(=O)[nH]c1=O [Example 66] | < 0.32 | > 245 | 78.6 (≈ 211 µM) |
| CC/C=C/Cn1c(C(=O)c2cc(C)cc(C)c2)c(C(C)C)c(=O)[nH]c1=O [Example 53] | < 0.009 | > 665 | 5.99 (≈ 16.9 µM) |
| C=CCn1c(Sc2ccccc2)c(CC)c(=O)[nH]c1=O [Example 12, 1-allyl-5-ethyl-6-phenylthio-2,4-pyrimidinedione] | < 0.32 | > 54 | 17.5 (≈ 60.6 µM) |
| CCc1c(C(=O)c2cc(C)cc(C)c2)n(CC=CC(=O)OC)c(=O)[nH]c1=O [Example 8, 1-(methoxycarbonylallyl)-5-ethyl-6-(3,5-dimethylbenzoyl)-2,4-pyrimidinedione] | < 0.19 | > 143 | 27.2 (≈ 73.5 µM) |
| CCc1c(Sc2cc(C)cc(C)c2)n(C/C=C/CCl)c(=O)[nH]c1=O [Example 22] | < 0.36 | > 93 | 33.8 (≈ 92.6 µM) |
| CCc1c(Sc2cc(C)cc(C)c2)n(C/C=C/CO)c(=O)[nH]c1=O [Example 78, 1-(4-hydroxy-trans-2-butenyl)-5-ethyl-6-(3,5-dimethylphenylthio)-2,4-pyrimidinedione] | < 0.97 | > 29 | 29 (≈ 83.6 µM) |
| CCOCn1c(Cc2cc(C)cc(C)c2)c(CC)c(=O)[nH]c1=O [Ref. 1, 1ethoxymethyl-5-ethyl-6-(3,5-dimethylbenzyl)-2,4-pyrimidinedione, reference compound] | < 0.009 | > 4,962 | 44.7 (≈ 141 µM) |
| CCOC/C=C\Cn1c(Sc2ccccc2)c(CC)c(=O)[nH]c1=O [Example 16] | 2.78 (≈ 8.02 µM) | 6.85 | 19 (≈ 54.9 µM) |
| C#CCn1c(Sc2cc(C)cc(C)c2)c(CC)c(=O)[nH]c1=O [Example 24, 1-propargyl-5-ethyl-6-(3,5-dimethylphenylthio)-2,4-pyrimidinedione] | < 0.032 | > 56 | 1.81 (≈ 5.76 µM) |
| CCc1c(Cc2ccccc2)n(C/C=C/c2ccccc2)c(=O)[nH]c1=O [Example 33] | < 0.032 | > 268 | 8.58 (≈ 24.8 µM) |
| C=CCn1c(Sc2cc(C)cc(C)c2)c(CC)c(=O)[nH]c1=O [Example 18, 1-allyl-5-ethyl-6-(3,5-dimethylphenylthio)-2,4-pyrimidinedione] | < 0.032 | > 121 | 3.9 (≈ 12.3 µM) |
| Cc1cc(C)cc(C(=O)c2c(C(C)C)c(=O)[nH]c(=O)n2C/C=C/CCl)c1 [Example 9, 1-(4-chloro-trans-2-butenyl)-5-isopropyl-6-(3,5-dimethylbenzoyl)-2,4-pyrimidinedione] | < 0.009 | > 708 | 6.38 (≈ 17 µM) |
| CCc1c(Sc2ccccc2)n(C/C=C/c2ccccc2)c(=O)[nH]c1=O [Example 14] | < 0.032 | > 180 | 5.77 (≈ 15.8 µM) |
| CCc1c(C(=O)c2cc(C)cc(C)c2)n(C/C=C/c2ccccc2)c(=O)[nH]c1=O [Example 45, 1-(trans-cinnamyl)-5-ethyl-6-(3,5-dimethylbenzoyl)-2,4-pyrimidinedione] | < 0.009 | > 663 | 5.97 (≈ 15.4 µM) |
| C#CCn1c(Cc2cc(C)cc(C)c2)c(CC)c(=O)[nH]c1=O [Example 38, 1-propargyl-5-ethyl-6-(3,5-dimethylbenzyl)-2,4-pyrimidinedione] | < 0.32 | > 75 | 24.1 (≈ 81.5 µM) |
| C/C=C/Cn1c(Cc2ccccc2)c(CC)c(=O)[nH]c1=O [Example 32] | < 0.32 | > 101 | 32.4 (≈ 114 µM) |
